Source: patent US20130217664A1, “NOVEL COMPOUNDS USEFUL FOR THE TREATMENT OF DEGENERATIVE AND INFLAMMATORY DISEASES” (priority 2012, published 2013)

Tests used:
[1] = molecular target: T1, human JAK2 (Homo sapiens, UniProt O60674); assay: JAK2 inhibition assay (polyGT substrate / Ulight-JAK1 peptide); assay type: biochemical; details: recombinant human JAK2 catalytic domain; polyGT or Ulight-JAK1 peptide assay
T1 construct: catalytic domain (amino acids 808-1132; catalog number PV4210); GST; purchased Invitrogen PV4210
T1 sequence (O60674 808-1132): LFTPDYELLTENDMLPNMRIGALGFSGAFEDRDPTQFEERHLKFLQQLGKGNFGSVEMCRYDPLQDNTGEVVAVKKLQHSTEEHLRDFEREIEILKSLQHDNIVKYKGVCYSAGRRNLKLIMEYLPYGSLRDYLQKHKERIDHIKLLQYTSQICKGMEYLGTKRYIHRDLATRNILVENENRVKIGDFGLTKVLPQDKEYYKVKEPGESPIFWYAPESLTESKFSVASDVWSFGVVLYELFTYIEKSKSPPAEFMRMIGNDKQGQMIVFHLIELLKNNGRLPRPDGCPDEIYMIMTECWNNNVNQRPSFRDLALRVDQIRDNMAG
Summary of the method: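 Radiometric: 0.025 mU JAK2 with 2.5 μg polyGT, 1 μM ATP plus ^33P-ATP in MOPS pH 7.5 buffer, 1% DMSO, 90 min at 30° C.; filter counting. Alternative TR-FRET format with Ulight-JAK1 peptide, 60 min at room temperature, Eu-anti-phosphotyrosine detection.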

[2] = molecular target: T2, human JAK1 (Homo sapiens, UniProt P23458); assay: JAK1 inhibition assay (polyGT substrate / Ulight-JAK1 peptide); assay type: biochemical; details: recombinant human JAK1 catalytic domain; polyGT or Ulight-JAK1 peptide assay
T2 construct: catalytic domain, amino acids 866-1154; catalog number PV4774; purchased Invitrogen PV4774
T2 sequence (P23458 866-1154): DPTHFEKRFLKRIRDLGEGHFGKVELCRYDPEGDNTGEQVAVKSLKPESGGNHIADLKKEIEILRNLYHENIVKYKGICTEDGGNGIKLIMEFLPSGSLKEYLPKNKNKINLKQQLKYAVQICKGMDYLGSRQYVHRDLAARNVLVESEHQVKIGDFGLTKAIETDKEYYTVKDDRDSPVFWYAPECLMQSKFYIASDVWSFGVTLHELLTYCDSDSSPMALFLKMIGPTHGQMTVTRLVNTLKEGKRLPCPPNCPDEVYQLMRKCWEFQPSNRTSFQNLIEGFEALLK
Summary of the method: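 Two formats. PolyGT radiometric: 45 min at 30 °C, stopped with phosphoric acid, counted as cpm. Ulight-JAK1 peptide: 60 min at room temperature, stopped with Eu-anti-phosphotyrosine/EDTA, read as RFU. Percent inhibition normalised to vehicle and 10 μM staurosporine.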

Row | Compound | IC50 [1] | IC50 [2]
1 | CCc1ccccc1N(CC)c1cc2c(cn1)ncn2C [Compound 34, N-Ethyl-N-(2-ethylphenyl)-1-methyl-1H-imidazo[4,5-c]pyridin-6-amine] | 501 to 1000 nM | 0.01 to 100 nM
2 | CCc1ccc(C(=O)NC(C)(C)C)cc1N(C)c1cc2c(cn1)ncn2C [Compound 123, N-tert-butyl-4-ethyl-3-(methyl(1-methyl-1H-imidazo[4,5-c]pyridin-6-yl)amino)benzamide] | > 1000 nM | 0.01 to 100 nM
3 | CCc1cc(C#N)cc(F)c1N(C)c1cc2c(cn1)ncn2C [Compound 322, 3-Ethyl-5-fluoro-4-[methyl-(1-methyl-M-imidazo[4,5-c]pyridin-6-yl)-amino]-benzonitrile] | 101 to 500 nM | 0.01 to 100 nM
4 | COc1cc(-c2c(C)nn(C)c2C)ncc1N(C)c1cc2c(cn1)ncn2C [Compound 312] | > 1000 nM | > 1000 nM
5 | CCc1cc(C(=O)NCC#N)ccc1N(C)c1cc2c(cn1)ncn2C [Compound 120, N-(cyanomethyl)-3-ethyl-4-(methyl(1-methyl-1H-imidazo[4,5-c]pyridin-6-yl)amino)benzamide] | 101 to 500 nM | 0.01 to 100 nM
6 | CN(c1cc2c(cn1)ncn2C)c1ccccc1OC(F)F [Compound 39, N-(2-(difluoromethoxy)phenyl)-N,1-dimethyl-1H-imidazo[4,5-c]pyridin-6-amine] | 501 to 1000 nM | 0.01 to 100 nM
7 | Cc1cc(O)ccc1N(C)c1cc2c(cn1)ncn2C [Compound 38, 3-Methyl-4-(methyl(1-methyl-1H-imidazo[4,5-c]pyridin-6-yl)amino)phenol] | > 1000 nM | 0.01 to 100 nM
8 | CCc1cc(C(=O)OC)ccc1N(C)c1cc2c(cn1)ncn2C [Compound 80, Methyl 3-ethyl-4-(methyl(1-methyl-1H-imidazo[4,5-c]pyridin-6-yl)amino)benzoate] | 101 to 500 nM | 0.01 to 100 nM
9 | CCc1cc(C2CN(S(=O)(=O)C(C)C)C2)ncc1N(C)c1cc2c(cn1)ncn2C [Compound 330, {4-Ethyl-6-[1-(propane-2-sulfonyl)-azetidin-3-yl]-pyridin-3-yl}-methyl-(1-methyl-1H-imidazo[4,5-c]pyridin-6-yl)-amine] | 101 to 500 nM | 0.01 to 100 nM
10 | CCc1ccc(F)cc1N(C)c1cc2c(cn1)ncn2C [Compound 84, N-(2-ethyl-5-fluorophenyl)-N,1-dimethyl-1H-imidazo[4,5-c]pyridin-6-amine] | 101 to 500 nM | 0.01 to 100 nM
11 | CNC(=O)c1ccc(N(C)c2cc3c(cn2)ncn3C)c(C)c1 [Compound 30, N,3-Dimethyl-4-(methyl(1-methyl-1H-imidazo[4,5-c]pyridin-6-yl)amino)-benzamide] | > 1000 nM | 101 to 500 nM
12 | CCc1cc(-c2ccc(CNC(=O)OC(C)(C)C)s2)ncc1N(C)c1cc2c(cn1)ncn2C [Compound 302] | 101 to 500 nM | 0.01 to 100 nM
13 | Cc1cc(-c2cnn(C)c2)ccc1N(C)c1cc2c(cn1)ncn2C [Compound 73, N,1-dimethyl-N-(2-methyl-4-(1-methyl-1H-pyrazol-4-yl)phenyl)-1H-imidazo[4,5-c]pyridin-6-amine] | 501 to 1000 nM | 0.01 to 100 nM
14 | CCc1cc(C(=O)NCCC#N)ccc1N(C)c1cc2c(cn1)ncn2C [Compound 86, N-(2-Cyanoethyl)-3-ethyl-4-(methyl(1-methyl-1H-imidazo[4,5-c]pyridin-6-yl)amino)benzamide] | 501 to 1000 nM | 0.01 to 100 nM
15 | COc1cc(S(=O)(=O)N2CCOCC2)ccc1N(C)c1cc2c(cn1)ncn2C [Compound 315, [2-Methoxy-4-(morpholine-4-sulfonyl)-phenyl]-methyl-(1-methyl-1H-imidazo[4,5-d]pyridin-6-yl)-amine] | > 1000 nM | > 1000 nM
16 | COc1ccc(COc2ccc(N(C)c3cc4c(cn3)ncn4C)c(C)c2)cc1 [Compound 33, N-(4-(4-Methoxybenzyloxy)-2-methylphenyl)-N,1-dimethyl-1H-imidazo[4,5-c]pyridin-6-amine] | > 1000 nM | 0.01 to 100 nM
17 | CCc1cc(C(=O)NCCN(C)C)ccc1N(C)c1cc2c(cn1)ncn2C [Compound 119, N-(2-(dimethylamino)ethyl)-3-ethyl-4-(methyl(1-methyl-1H-imidazo[4,5-c]pyridin-6-yl)amino)benzamide] | > 1000 nM | 0.01 to 100 nM
18 | CCc1cc(-c2ccsc2)ccc1N(C)c1cc2c(cn1)ncn2C [Compound 127, N-(2-ethyl-4-(thiophen-3-yl)phenyl)-N,1-dimethyl-1H-imidazo[4,5-c]pyridin-6-amine] | 101 to 500 nM | 0.01 to 100 nM

Row | Compound | IC50 [1] | IC50 [2]
19 | CCc1cc(C2CN(C(C)=O)C2)ncc1N(C)c1cc2c(cn1)ncn2C [Compound 332, 1-(3-{4-Ethyl-5-[methyl-(1-methyl-1H-imidazo[4,5-c]pyridin-6-yl)-amino]-pyridin-2-yl}-azetidin-1-yl)-ethanone] | 501 to 1000 nM | 101 to 500 nM
20 | CCc1cc(O)ccc1N(C)c1cc2c(cn1)ncn2C [Compound 107, 3-ethyl-4-(methyl(1-methyl-1H-imidazo[4,5-c]pyridin-6-yl)amino)phenol] | 0.01 to 100 nM | 0.01 to 100 nM
21 | Cc1c(OCC#N)cccc1N(C)c1cc2c(cn1)ncn2C [Compound 64, 2-(2-methyl-3-(methyl(1-methyl-1H-imidazo[4,5-c]pyridin-6-yl)amino)phenoxy)acetoni-trile] | 101 to 500 nM | 0.01 to 100 nM
22 | CCc1cc(CNC(=O)C(F)F)c(F)cc1N(C)c1cc2c(cn1)ncn2C [Compound 326, N-{5-Ethyl-2-fluoro-4-[methyl-(1-methyl-M-imidazo[4,5-c]pyridin-6-yl)-amino]-benzyl}-2,2-difluoro-acetamide] | 0.01 to 100 nM | 0.01 to 100 nM
23 | Cc1cc(C(N)=O)ccc1N(C)c1cc2c(cn1)ncn2C [Compound 32, 3-Methyl-4-(methyl(1-methyl-1H-imidazo[4,5-c]pyridin-6-yl)amino)benzamide] | > 1000 nM | 0.01 to 100 nM
24 | CCc1cc(Cn2ccnc2)ccc1N(C)c1cc2c(cn1)ncn2C [Compound 111, N-(4-((1H-imidazol-1-yl)methyl)-2-ethylphenyl)-N,1-dimethyl-1H-imidazo[4,5-c]pyridin-6-amine] | 101 to 500 nM | 0.01 to 100 nM
25 | Cc1cc(-c2cn[nH]c2)ccc1N(C)c1cc2c(cn1)ncn2C [Compound 71, N,1-Dimethyl-N-(2-methyl-4-(1H-pyrazol-4-yl)phenyl)-1H-imidazo[4,5-c]pyridin-6-amine] | 101 to 500 nM | 0.01 to 100 nM
26 | COc1ccc(S(=O)(=O)N2CCCCC2)cc1N(C)c1cc2c(cn1)ncn2C [Compound 314, [2-Methoxy-5-(piperidine-1-sulfonyl)-phenyl]-methyl-(1-methyl-1H-imidazo[4,5-d]pyridin-6-yl)-amine] | > 1000 nM | > 1000 nM
27 | CCc1ccc(C#N)cc1N(C)c1cc2c(cn1)ncn2C [Compound 83, 4-ethyl-3-(methyl(1-methyl-1H-imidazo[4,5-c]pyridin-6-yl)amino)benzonitrile] | 101 to 500 nM | 0.01 to 100 nM
28 | CCc1cc(F)ccc1N(C)c1cc2c(cn1)ncn2C [Compound 28, N-(2-Ethyl-4-fluorophenyl)-N,1-dimethyl-1H-imidazo[4,5-c]pyridin-6-amine] | 501 to 1000 nM | 0.01 to 100 nM
29 | Cc1ccc(OCc2cccnc2)cc1N(C)c1cc2c(cn1)ncn2C [Compound 61, N,1-dimethyl-N-(2-methyl-5-(pyridin-3-ylmethoxy)phenyl)-1H-imidazo[4,5-c]pyridin-6-amine] | > 1000 nM | 0.01 to 100 nM
30 | Cc1cc(CO)ccc1N(C)c1cc2c(cn1)ncn2C [Compound 29, (3-Methyl-4-(methyl(1-methyl-1H-imidazo[4,5-c]pyridin-6-yl)amino)phenyl) MeOH] | > 1000 nM | 0.01 to 100 nM
31 | Cc1ccc(OCc2ccccc2)cc1N(C)c1cc2c(cn1)ncn2C [Compound 56, N-(5-(benzyloxy)-2-methylphenyl)-N,1-dimethyl-1H-imidazo[4,5-c]pyridin-6-amine] | > 1000 nM | 101 to 500 nM
32 | Cc1ccc(Oc2ccc(C#N)nc2)cc1N(C)c1cc2c(cn1)ncn2C [Compound 91, 5-(4-methyl-3-(methyl(1-methyl-1H-imidazo[4,5-c]pyridin-6-yl)amino)phenoxy)picolino-nitrile] | > 1000 nM | 0.01 to 100 nM
33 | COc1ccc(COc2ccc(C)c(N(C)c3cc4c(cn3)ncn4C)c2)cc1 [Compound 43, N-(5-(4-methoxybenzyloxy)-2-methylphenyl)-N,1-dimethyl-1H-imidazo[4,5-c]pyridin-6-amine] | > 1000 nM | 101 to 500 nM
34 | CCc1cc(C2CN(CC#N)C2)ncc1N(C)c1cc2c(cn1)ncn2C [Compound 331, (3-{4-Ethyl-5-[methyl-(1-methyl-1H-imidazo[4,5-c]pyridin-6-yl)-amino]-pyridin-2-yl}-azetidin-1-yl)-acetonitrile] | 101 to 500 nM | 0.01 to 100 nM
35 | Cc1cc(OCCCC#N)ccc1N(C)c1cc2c(cn1)ncn2C [Compound 48, 4-(3-methyl-4-(methyl(1-methyl-1H-imidazo[4,5-c]pyridin-6-yl)amino)phenoxy)butane nitrile] | > 1000 nM | 0.01 to 100 nM
36 | Cc1cc(C#N)ccc1N(C)c1cc2c(cn1)ncn2C [Compound 31, 3-Methyl-4-(methyl(1-methyl-1H-imidazo[4,5-c]pyridin-6-yl)amino)benzonitrile] | > 1000 nM | 0.01 to 100 nM
